How the values were obtained:
[1] = system: panel of 21 receptors, ion channels and neurotransmitter transporters; assay: Panel of 21 receptors, ion channels and neurotransmitter transporters; format: binding; settings: 10 μM; data not shown
[2] = Body temperature (rectal probe); format: in vivo; settings: UCM532 10 mg kg-1 i.p.; UCM597 0.3 mg kg-1 i.p.
Excerpt: (§1) We dissolved all compounds in saline/Tween 80/polyethylenglycol (90/5/5) and administered them by i.p. injection immediately before tests. We measured body temperature with a rectal probe (Type T, Copper-Costantan Thermocouple-Physitemp Instruments INC, Clifton, N.J.) connected to a digital thermometer (model BAT-12 Physitemp Instruments INC, Clifton, N.J.); and catalepsy using the procedure described in Tseng and Craft (Tseng, A. H. et al., Eur. J. Pharmacol., 430, 41-47 (2001)).

[3] = biological target: T1, electric eel acetylcholinesterase (Electrophorus electricus, UniProt O42275)
T1 sequence (O42275 whole entry): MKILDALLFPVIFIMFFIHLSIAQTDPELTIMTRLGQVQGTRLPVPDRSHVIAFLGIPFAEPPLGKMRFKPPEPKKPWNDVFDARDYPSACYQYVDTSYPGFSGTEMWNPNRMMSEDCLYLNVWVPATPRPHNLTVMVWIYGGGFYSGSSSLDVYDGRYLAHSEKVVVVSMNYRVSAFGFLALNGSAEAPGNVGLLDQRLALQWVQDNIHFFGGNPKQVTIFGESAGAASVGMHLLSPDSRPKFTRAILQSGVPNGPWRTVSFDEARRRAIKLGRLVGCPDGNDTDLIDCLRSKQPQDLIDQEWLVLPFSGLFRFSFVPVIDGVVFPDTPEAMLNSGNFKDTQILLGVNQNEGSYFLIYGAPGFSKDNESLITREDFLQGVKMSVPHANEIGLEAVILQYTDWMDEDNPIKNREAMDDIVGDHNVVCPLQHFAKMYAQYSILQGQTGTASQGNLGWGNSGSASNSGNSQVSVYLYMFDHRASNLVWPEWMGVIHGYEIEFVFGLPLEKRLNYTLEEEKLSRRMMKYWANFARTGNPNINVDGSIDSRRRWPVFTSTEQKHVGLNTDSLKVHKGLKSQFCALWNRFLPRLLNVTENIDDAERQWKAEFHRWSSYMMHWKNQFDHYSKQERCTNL

Mouse hot-plate test = format: in vivo; settings: dose not stated, data not shown
Description: (§2) We dissolved FAAH inhibitors in polyethyleneglycol/water (1/1) and rimonabant in saline. Formalin and hot-plate assays were carried out in the mouse, as described (Beltramo, M. et al., FEBS Lett., 403, 263-267 (1997)).
(§3) The compounds exerted, however, moderate antinociceptive effects in two models of acute pain.

[4] = Motor activity (Opto-Varimex cage); format: in vivo, rat
Description: We dissolved FAAH inhibitors and rimonabant in dimethylsulfoxide (DMSO)/saline (7/3 and 9/1, respectively); we administered FAAH inhibitors by i.p. injection 30 min before tests and rimonabant 30 min before UCM532. The elevated zero maze was comprised of a black Perspex annular platform (105 cm diameter, 10 cm width) elevated to 65 cm above ground level, divided equally into four quadrants (Bickerdike, M. J. et al., Eur. J. Pharmacol., 271, 403-411 (1994); Shepherd, J. K. et al., Psychopharmacology, 116, 56-64 (1994)). […] We placed the rats in a closed quadrant and video recorded them for 5-min periods, thoroughly cleaning the maze between sessions. […] Results are expressed as percent time in open quadrant/total time (percent time open). Results were analyzed by one-way ANOVA followed by Tukey's test. We recorded motor activity of each rat in an Opto-Varimex cage (Columbus Instruments, Columbus, Ohio) linked on-line to a computer and placed in a sound-attenuated room illuminated by a 20-W white light. The amount of time spent in ambulatory activity was analyzed using an Auto-Track software (Columbus Instruments, Columbus, Ohio) as described elsewhere (Ali, M. M. et al., Neurosci. Lett., 284, 57-60 (2000); Wedzony, K. et al., Neuropsychopharmacology, 23, 547-559 (2000)). […] We analyzed data by overall one-way ANOVA followed by Tukey's test for individual between-group comparisons. […]

Mouse formalin test = format: in vivo; settings: dose not stated, data not shown
Description: as §2, §3

FAAH [5] = biological target: T2, FAAH (Rattus norvegicus, UniProt P97612); assay: FAAH-catalyzed hydrolysis of [3H]anandamide by intact cortical neurons in primary cultures; format: cell-based; settings: n=8, read-out: IC50, hydrolysis of exogenous [3H]anandamide
T2 sequence (P97612 1-579): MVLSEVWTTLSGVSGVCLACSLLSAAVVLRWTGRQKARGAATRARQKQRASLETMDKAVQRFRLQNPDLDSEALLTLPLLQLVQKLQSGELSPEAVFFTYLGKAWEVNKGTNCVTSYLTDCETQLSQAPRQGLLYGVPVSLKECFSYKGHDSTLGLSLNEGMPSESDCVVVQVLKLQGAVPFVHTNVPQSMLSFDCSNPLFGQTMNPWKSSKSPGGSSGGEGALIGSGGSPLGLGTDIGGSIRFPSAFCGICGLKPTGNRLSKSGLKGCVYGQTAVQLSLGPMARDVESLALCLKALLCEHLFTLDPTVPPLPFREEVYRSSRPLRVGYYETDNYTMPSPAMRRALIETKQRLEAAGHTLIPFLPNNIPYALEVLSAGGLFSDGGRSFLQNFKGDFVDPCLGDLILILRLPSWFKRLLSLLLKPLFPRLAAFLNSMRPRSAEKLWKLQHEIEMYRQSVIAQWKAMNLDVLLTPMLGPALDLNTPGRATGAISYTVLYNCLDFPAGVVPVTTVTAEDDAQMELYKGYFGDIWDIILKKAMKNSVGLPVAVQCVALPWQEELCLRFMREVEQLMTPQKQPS

brain FAAH activity = biological target: T3, brain FAAH activity (Rattus norvegicus, UniProt P97612); assay: Brain FAAH activity after systemic (i.p.) administration; format: in vivo; settings: ip, six experiments, read-out: half-maximal inhibition of brain FAAH activity (ID50)
T3 construct: from tissue; host or cells: rat brain (membrane fraction of homogenate; Wistar rats)
T3 sequence (P97612 1-579): T2 sequence (P97612 1-579)

[6] = biological target: T1, electric eel acetylcholinesterase; assay: biochemical
FAAH [7] = biological target: T2, FAAH; assay: biochemical; format: biochemical; parameters: from tissue; host or cells: rat brain (membrane fraction of homogenate; Wistar rats)
Catalepsy = format: in vivo; settings: UCM532 10 mg kg-1 i.p.; UCM597 0.3 mg kg-1 i.p.; data not shown
Excerpt: as §1

[8] = Isolation-induced ultrasonic vocalization emission in rat pups; format: in vivo; settings: 5 mg kg-1

In the case of CCCCNC(=O)Oc1ccc(OCc2ccccc2)cc1 [UCM532, n-Butylcarbamic acid 4-benzyloxyphenyl ester], the “interaction with panel of 21 receptors, ion channels and transporters” value [1] is reported as “did not significantly interact”, the “body temperature / hypothermia, compound alone” value [2] is reported as “no” and the “effect on acetylcholinesterase activity (in words)” value [3] is reported as “did not affect”. The “AChE: maximal concentration of FAAH inhibitor tested” value ([3]; Table 2) was >100 µM, the “antinociceptive effect, hot-plate test, compared with UCM597” value (Mouse hot-plate test) was “mimicked, albeit less effectively” and the ambulation time ([4]; adult rats, 20 min session, ≧10 mg kg-1) was “modest decrease”. The pup movement ([4]; rat pups, 5 mg kg-1, data not shown) was “no effect”, the “antinociceptive effect, formalin test, compared with UCM597” value (Mouse formalin test) was “mimicked, albeit less effectively” and the IC50 (FAAH [5]) was 214 ± 79 nM. For the same compound, the ED50 (brain FAAH activity) was 0.6 ± 0.09 mg/kg, the IC50 [6] was > 30000 nM and the IC50 (FAAH [7]; Table 3, read-out: Amidohydrolase IC50) was 400 nM. For the same compound, the IC50 (FAAH [7]; Table 4, FAAH IC50, read-out: Inhibition of Amidohydrolase IC50) was 300 nM, the “mode of FAAH inhibition (kinetic analyses and dialysis experiments)” value (FAAH [7]; data not shown) was “irreversible interaction” and the IC50 (FAAH [7]; rat brain membranes, read-out: IC50) was 396 ± 63 nM. The “catalepsy (rigid immobility)” value (Catalepsy) was “no catalepsy” and the isolation-induced ultrasonic calls [8] was “strongly reduced”.

— patent US20040127518A1, “Modulation of anxiety through blockade of anandamide hydrolysis” (priority 2002, published 2004)
